Here are results for two molecules from patent US20240041036A1, “BIO PESTICIDAL COMPOSITION CONTAINS NOVEL NONANOATE ESTERS OF SUGARS AND SUGAR ALCOHOLS TO CONTROL LEPIDOPTERA, HEMIPTERA AND THYSANOPTERA INSECTS” (FERTIS INDIA PVT. LTD., priority 2020, published 2024).

Test in all cases: Field experiment on cotton sucking insects, population count
What all share (format): in vivo

In assay [1] the test system is jassids (Amrascabi guttula). The conditions noted are these: for Jassids population count after spray: 0.5 g/L. As to the method: (§1) A field experiment was conducted with EN2 formulation on cotton sucking insects viz. thrips (Scirtothrips dorsails), aphids (Aphis gossypii), jassids (Amrascabi guttula) and whitefly (Bemisia tabaci), as shown in FIG. 25. Two benchmark insecticides were used as control viz. Thiamethoxam (a broad spectrum insecticide) and Acetamiprid (effective to cotton sucking pest). […] Initially the population of the pests (pre count) was assessed before spraying. […] The number of major sucking pests (2 leaves from top, one from middle and 2 leaves from bottom) in 5 tagged plants/treatment was recorded at 24 h before the spray and after 24 h, 3rd, 6th and 9th day after spray. The data was pooled and average population calculated.

The subject of assay [2] is thrips (Scirtothrips dorsails). The note with it: for Thrips population count after spray: 0.5 g/L; for Reduction of thrips population: after 24 h, dose not stated. As to the method:
as §1, with “pest). Three doses of EN 2 formulation (for 1 kg formulation EN 800 g+Arginine 80 g+Silwet20 g+Tergitol 20 g+Water 150 g) was used for this study viz.” for “pest).”

Assay [3] concerns whitefly (Bemisia tabaci). The conditions noted are these: 0.5 g/L. As to the method:
as §1, with “pest). Three doses of EN 2 formulation (for 1 kg formulation EN 800 g+Arginine 80 g+Silwet20 g+Tergitol 20 g+Water 150 g) was used for this study viz.” for “pest).”

On to `CN1COCN(Cc2cnc(Cl)s2)/C1=N\[N+](=O)[O-]` [Thiamethoxam], for which the “Jassids population count after spray” value in assay [1] (3rd day after spray) stood at 3.26; in assay [1] (6th day after spray), 2; in assay [1] (9th day after spray) it was 2.73; in assay [1] (24 hrs after spray) it was 13.66. Further, the “Reduction of Jassids population” value in assay [1] (3rd day after the spray) came to 11.8%. The “Reduction of Jassid population” value in assay [1] (9th day) is recorded as 40.6%. For the same molecule, the “Thrips population count after spray” value was 3.46 in assay [2] (3rd day after spray), 5.33 in assay [2] (6th day after spray), 3.76 in assay [2] (9th day after spray) and 23.7 in assay [2] (24 h after spray). Moreover, the “Reduction of thrips population” value in assay [2] is 15.9%. The “Whitefly population count after spray” value worked out at 1.86 in assay [3] (3rd day after spray), 2.46 in assay [3] (6th day after spray), 1.7 in assay [3] (9th day after spray) and 7 in assay [3] (24 h after spray).
With `C/C(=N\C#N)N(C)Cc1ccc(Cl)nc1` [Acetamiprid], the “Jassids population count after spray” value in assay [1] (3rd day after spray) stood at 3.56; in assay [1] (6th day after spray), 2.66; in assay [1] (9th day after spray), 3.36; in assay [1] (24 hrs after spray), 14. Besides, the “Thrips population count after spray” value in assay [2] (3rd day after spray) stood at 4.06; in assay [2] (6th day after spray), 5.66; in assay [2] (9th day after spray) it was 3.6; in assay [2] (24 h after spray) it was 22.7. The “Reduction of thrips population” value in assay [2] is 13.7%. For the same molecule, the “Whitefly population count after spray” value was found to be 1.66 in assay [3] (3rd day after spray), 2.4 in assay [3] (6th day after spray), 2.13 in assay [3] (9th day after spray) and 8.66 in assay [3] (24 h after spray).
